Measured values: patent US8492372B2, “Modulators of dopamine neurotransmission” (Integrated Research Laboratories Sweden AB, priority 2008, dated 2013)
Structures can show the parent of a compound that is named as a salt.

Assays:
[1] = test system: DOPAC (3,4-dihydroxyphenylacetic acid) in the rat striatum; test: Increase of DOPAC in the rat striatum after systemic administration (in vivo neurochemistry); conditions: estimated ED50 on increase of DOPAC in rat striatum, curve fit, range in brackets covers 95% of fits; for ED50: Rattus norvegicus, sc; for ED50 DOPAC: s.c.
From the text: After the behavioural activity sessions, the rats are decapitated and their brains rapidly taken out and put on an ice-cold petri-dish. The limbic forebrain, the striatum, the frontal cortex and the remaining hemispheral parts of each rat are dissected and frozen. Each brain part is subsequently analyzed with respect to its content of monoamines and their metabolites.
The monoamine transmitter substances (NA (noradrenaline), DA (dopamine), 5-HT (serotonin)) as well as their amine (NM (normethanephrine), 3-MT (3-methoxytyramine)) and acid (DOPAC (3,4-dihydroxyphenylacetic acid), 5-HIAA (5-hydroxyindoleacetic acid), HVA (homovanillic acid)) metabolites are quantified in brain tissue homogenates by HPLC separations and electrochemical detection.
The analytical method is based on two chromatographic separations dedicated for amines or acids. Two chromatographic systems share a common auto injector with a 10-port valve and two sample loops for simultaneous injection on the two systems. Both systems are equipped with a reverse phase column (Luna C18(2), dp 3 μm, 50*2 mm i.d., Phenomenex) and electrochemical detection is accomplished at two potentials on glassy carbon electrodes (MF-1000, Bioanalytical Systems, Inc.). The column effluent is passed via a T-connection to the detection cell or to a waste outlet. This is accomplished by two solenoid valves, which block either the waste or detector outlet. By preventing the chromatographic front from reaching the detector, better detection conditions are achieved. The aqueous mobile phase (0.4 ml/min) for the acid system contains citric acid 14 mM, sodium citrate 10 mM, MeOH 15% (v/v) and EDTA 0.1 mM. Detection potentials relative to Ag/AgCl reference are 0.45 and 0.60V. The aqueous ion pairing mobile phase (0.5 ml/min) for the amine system contains citric acid 5 mM, sodium citrate 10 mM, MeOH 9% (v/v), MeCN 10.5% v/v), decane sulfonic acid 0.45 mM, and EDTA 0.1 mM. Detection potentials relative to Ag/AgCl reference are 0.45 and 0.65V.
ED50 values for the increase of DOPAC in striatum are calculated by curve fitting.

[2] = test system: Locomotor activity in drug-naive rats; test: Locomotor activity in drug-naive rats (in vivo behaviour); design: species or system rat; conditions: recorded for 60 minutes immediately after drug administration
From the text: Photobeam sensors are spaced 2.5 cm apart.

[3] = test system: amphetamine-induced hyper-locomotion; test: Reduction of amphetamine-induced hyper-locomotion (in vivo behaviour); conditions: range in brackets covers 95% of fits; for ED50: Rattus norvegicus, read-out: ED50 reduction of amphetamine-induced hyper-locomotion, rats pre-treated with d-amphetamine 1.5 mg/kg i.p., test compound s.c., curve fit

SMILES	melting point	ED50 [1]	Locomotor activity ([2]; 3.7 μmol/kg)	Locomotor activity ([2]; 11 μmol/kg)	Locomotor activity ([2]; 33 μmol/kg)	ED50 [3]	ED50 DOPAC [1]	ED50 reduction of amphetamine-induced hyper-locomotion ([3]; rats pre-treated with d-amphetamine 1.5 mg/kg i.p., test compound s.c., curve fit)
CCCNCC1OCc2ccc(S(C)(=O)=O)cc2O1 (centres unmarked) (as salt: hydrochloric acid salt) [Example 3, N-{[7-(METHYLSULFONYL)-4H-1,3-BENZODIOXIN-2-YL]METHYL}PROPAN-1-AMINE]	213 °C	–	–	–	–	–	–	–
O=S(=O)(c1ccc2c(c1)OC(CN1CCCC1)OC2)C(F)(F)F (centres unmarked) (as salt: fumaric acid salt) [Example 7, 1-({7-[(TRIFLUOROMETHYL)SULFONYL]-4H-1,3-BENZODIOXIN-2-YL}METHYL)PYRROLIDINE]	184 °C	–	–	–	–	–	–	–
CCCNCC1OCc2ccc(S(=O)(=O)C(F)(F)F)cc2O1 (centres unmarked) [Example 8, N-({7-[(TRIFLUOROMETHYL)SULFONYL]-4H-1,3-BENZODIOXIN-2-YL}METHYL)PROPAN-1-AMINE]	–	7 µmol/kg	11601 ± 583 counts/60 min ± SEM	7064 ± 1032 counts/60 min ± SEM	2641 ± 757 counts/60 min ± SEM	4.9 µmol/kg	–	–
CCCNCC1OCc2ccc(S(C)(=O)=O)cc2O1 (single isomer, unassigned; (-)) [Example 4, (−)-N-{[7-(METHYLSULFONYL)-4H-1,3-BENZODIOXIN-2-YL]METHYL}PROPAN-1-AMINE]	–	–	9158 ± 2094 counts/60 min ± SEM	11153 ± 1257 counts/60 min ± SEM	12588 ± 331 counts/60 min ± SEM	–	27 (23-31) μmol/kg	27 (19-35) μmol/kg
CCCNCC1OCc2cc(F)c(S(C)(=O)=O)cc2O1 (centres unmarked) [Example 20, N-{[6-FLUORO-7-(METHYLSULFONYL)-4H-1,3-BENZODIOXIN-2-YL]METHYL}PROPAN-1-AMINE]	–	11 µmol/kg	8830 ± 1277 counts/60 min ± SEM	10181 ± 1385 counts/60 min ± SEM	5502 ± 474 counts/60 min ± SEM	–	–	–
CCCNCC1OCc2ccc(S(=O)(=O)C(F)(F)F)cc2O1 (centres unmarked) (as salt: hydrochloric acid salt) [Example 8, N-({7-[(TRIFLUOROMETHYL)SULFONYL]-4H-1,3-BENZODIOXIN-2-YL}METHYL)PROPAN-1-AMINE]	201 °C	–	–	–	–	–	–	–
CCCNCC1OCc2c(F)cc(Br)cc2O1 (centres unmarked) (as salt: oxalic acid salt) [Example 16, N-[(7-BROMO-5-FLUORO-4H-1,3-BENZODIOXIN-2-YL)METHYL]PROPAN-1-AMINE]	215 °C	–	–	–	–	–	–	–
CCCNCC1OCc2ccc(C(F)(F)F)cc2O1 (centres unmarked) (as salt: hydrochloric acid salt) [Example 1, N-{[7-(TRIFLUOROMETHYL)-4H-1,3-BENZODIOXIN-2-YL]METHYL}PROPAN-1-AMIN]	203 °C	–	–	–	–	–	–	–
CCCNCC1OCc2cc(F)c(Br)cc2O1 (centres unmarked) (as salt: hydrochloric acid salt) [Example 19, N-[(7-BROMO-6-FLUORO-4H-1,3-BENZODIOXIN-2-YL)METHYL]PROPAN-1-AMINE]	182 °C	–	–	–	–	–	–	–
O=S(=O)(c1ccc2c(c1)OC(CN1CCCC1)OC2)C(F)(F)F (centres unmarked) [Example 7, 1-({7-[(TRIFLUOROMETHYL)SULFONYL]-4H-1,3-BENZODIOXIN-2-YL}METHYL)PYRROLIDINE]	–	48 µmol/kg	9548 ± 1455 counts/60 min ± SEM	7270 ± 278 counts/60 min ± SEM	11818 ± 2775 counts/60 min ± SEM	50 µmol/kg	–	–
CCNCC1OCc2ccc(S(=O)(=O)C(F)(F)F)cc2O1 (centres unmarked) (as salt: hydrochloric acid salt)	169 °C	–	–	–	–	–	–	–
CCCNCC1OCc2c(F)cc(S(C)(=O)=O)cc2O1 (centres unmarked) [Example 17, N-{[5-FLUORO-7-(METHYLSULFONYL)-4H-1,3-BENZODIOXIN-2-YL]METHYL}PROPAN-1-AMINE]	–	8.6 µmol/kg	10520 ± 1381 counts/60 min ± SEM	8330 ± 2194 counts/60 min ± SEM	3319 ± 140 counts/60 min ± SEM	–	–	–
CCCNCC1OCc2c(F)cc(Br)cc2O1 (centres unmarked) [Example 16, N-[(7-BROMO-5-FLUORO-4H-1,3-BENZODIOXIN-2-YL)METHYL]PROPAN-1-AMINE]	–	20 µmol/kg	8637 ± 1217 counts/60 min ± SEM	7537 ± 2127 counts/60 min ± SEM	7393 ± 1395 counts/60 min ± SEM	–	–	–
CCCNCC1OCc2ccc(C(F)(F)F)cc2O1 (centres unmarked) [Example 1, N-{[7-(TRIFLUOROMETHYL)-4H-1,3-BENZODIOXIN-2-YL]METHYL}PROPAN-1-AMIN]	–	17 µmol/kg	8038 ± 1487 counts/60 min ± SEM	7279 ± 968 counts/60 min ± SEM	2682 ± 802 counts/60 min ± SEM	3.9 µmol/kg	–	–
CS(=O)(=O)c1ccc2c(c1)OC(CN1CCCCC1)OC2 (centres unmarked) [Example 21, 1-{[7-(METHYLSULFONYL)-4H-1,3-BENZODIOXIN-2-YL]METHYL}PIPERIDINE]	–	13 µmol/kg	8285 ± 721 counts/60 min ± SEM	6585 ± 707 counts/60 min ± SEM	4197 ± 923 counts/60 min ± SEM	14 µmol/kg	–	–
CCCNCC1OCc2ccc(S(C)(=O)=O)cc2O1 (single isomer, unassigned; (+)) [Example 5, (+)-N-{[7-(METHYLSULFONYL)-4H-1,3-BENZODIOXIN-2-YL]METHYL}PROPAN-1-AMINE]	–	–	9173 ± 3160 counts/60 min ± SEM	8274 ± 801 counts/60 min ± SEM	4854 ± 771 counts/60 min ± SEM	15 µmol/kg	12 (9.3-14) μmol/kg	–
CNCC1OCc2ccc(S(C)(=O)=O)cc2O1 (centres unmarked) (as salt: hydrochloric acid salt) [Example 12, N-METHYL-1-[7-(METHYLSULFONYL)-4H-1,3-BENZODIOXIN-2-YL]METHANAMINE]	225 °C	–	–	–	–	–	–	–
